In ChEMBL document CHEMBL5465560, “Selectivity Literature for EUbOPEN Chemogenomic Library” (2024):

What was measured:
[1] = molecular target: Leukocyte tyrosine kinase receptor (Homo sapiens, UniProt P29376); details: at 10 µM
[2] = molecular target: Myosin light chain kinase, smooth muscle (Homo sapiens, UniProt Q15746); details: at 10 µM
[3] = molecular target: Epithelial discoidin domain-containing receptor 1 (Homo sapiens) (UniProt Q08345); experiment: Selectivity interaction (KinomeScan (DiscoverX)) EUB0000655a DDR1; details: at 10 µM
Sequence of Epithelial discoidin domain-containing receptor 1 (Homo sapiens) (Q08345 whole entry, the tested form may be a part): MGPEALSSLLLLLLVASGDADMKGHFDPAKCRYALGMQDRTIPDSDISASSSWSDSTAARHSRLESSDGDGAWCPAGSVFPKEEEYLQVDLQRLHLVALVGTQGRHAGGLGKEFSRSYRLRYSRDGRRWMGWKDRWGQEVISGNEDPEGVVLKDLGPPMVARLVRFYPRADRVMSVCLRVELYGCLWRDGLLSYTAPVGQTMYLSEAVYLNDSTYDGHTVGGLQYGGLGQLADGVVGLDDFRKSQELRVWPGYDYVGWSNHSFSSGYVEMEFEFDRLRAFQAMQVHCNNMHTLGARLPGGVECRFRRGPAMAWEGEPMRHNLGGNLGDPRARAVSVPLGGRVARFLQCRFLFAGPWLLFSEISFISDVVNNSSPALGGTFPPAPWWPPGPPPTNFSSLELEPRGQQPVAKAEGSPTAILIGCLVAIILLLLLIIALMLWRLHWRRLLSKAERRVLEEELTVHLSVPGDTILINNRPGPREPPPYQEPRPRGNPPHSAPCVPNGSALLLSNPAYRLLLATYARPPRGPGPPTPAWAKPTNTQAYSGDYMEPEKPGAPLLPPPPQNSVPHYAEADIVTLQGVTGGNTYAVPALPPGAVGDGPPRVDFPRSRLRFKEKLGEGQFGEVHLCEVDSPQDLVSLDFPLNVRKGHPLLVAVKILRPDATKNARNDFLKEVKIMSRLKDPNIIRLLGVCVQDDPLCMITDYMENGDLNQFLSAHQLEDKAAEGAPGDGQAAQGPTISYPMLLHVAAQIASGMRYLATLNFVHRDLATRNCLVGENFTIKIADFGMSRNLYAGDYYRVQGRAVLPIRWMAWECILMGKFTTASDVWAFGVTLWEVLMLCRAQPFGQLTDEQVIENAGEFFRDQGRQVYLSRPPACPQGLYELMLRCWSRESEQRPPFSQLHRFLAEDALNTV

[4] = molecular target: T1, Serine/threonine-protein kinase 3 (Homo sapiens) (UniProt Q13188); experiment: Selectivity interaction (KinomeScan (DiscoverX)) EUB0001079a STK3; details: at 1 µM
T1 sequence (whole entry): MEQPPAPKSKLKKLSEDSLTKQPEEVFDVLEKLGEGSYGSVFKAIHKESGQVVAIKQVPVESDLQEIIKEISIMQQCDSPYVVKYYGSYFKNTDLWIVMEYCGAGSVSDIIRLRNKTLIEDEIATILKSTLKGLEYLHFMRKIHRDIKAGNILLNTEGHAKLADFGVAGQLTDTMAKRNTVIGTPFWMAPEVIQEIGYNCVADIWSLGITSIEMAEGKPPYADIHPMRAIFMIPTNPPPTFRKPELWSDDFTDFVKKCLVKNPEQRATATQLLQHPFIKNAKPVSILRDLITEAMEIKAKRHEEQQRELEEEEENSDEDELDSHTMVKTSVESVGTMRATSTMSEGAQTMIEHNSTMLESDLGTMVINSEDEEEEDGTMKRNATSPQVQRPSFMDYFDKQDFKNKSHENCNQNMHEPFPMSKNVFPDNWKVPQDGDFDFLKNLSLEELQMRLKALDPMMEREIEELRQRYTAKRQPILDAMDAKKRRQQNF

[5] = molecular target: T2, Mitogen-activated protein kinase 13 (Homo sapiens) (UniProt O15264); experiment: Selectivity interaction (KinomeScan (DiscoverX)) EUB0001619a MAPK13; details: at 1 µM
T2 sequence (whole entry): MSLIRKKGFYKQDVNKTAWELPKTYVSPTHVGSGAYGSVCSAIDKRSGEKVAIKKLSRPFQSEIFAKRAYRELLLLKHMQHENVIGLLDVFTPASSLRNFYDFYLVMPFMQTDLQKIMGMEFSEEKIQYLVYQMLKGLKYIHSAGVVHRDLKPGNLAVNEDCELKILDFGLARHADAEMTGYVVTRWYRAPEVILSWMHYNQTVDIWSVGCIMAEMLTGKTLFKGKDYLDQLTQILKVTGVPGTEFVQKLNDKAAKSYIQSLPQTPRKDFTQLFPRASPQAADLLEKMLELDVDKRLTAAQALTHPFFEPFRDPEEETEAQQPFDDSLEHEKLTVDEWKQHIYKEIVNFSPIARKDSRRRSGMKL

[6] = molecular target: Serine/threonine-protein kinase WNK2 (Homo sapiens) (UniProt Q9Y3S1); experiment: Selectivity interaction (ActivX KiNativ screen (ex vivo kinase selectivity in human PBMCs)) EUB0001619a WNK2; type: cell-based; details: PBMC, at 1 µM
Sequence of Serine/threonine-protein kinase WNK2 (Homo sapiens) (Q9Y3S1 whole entry): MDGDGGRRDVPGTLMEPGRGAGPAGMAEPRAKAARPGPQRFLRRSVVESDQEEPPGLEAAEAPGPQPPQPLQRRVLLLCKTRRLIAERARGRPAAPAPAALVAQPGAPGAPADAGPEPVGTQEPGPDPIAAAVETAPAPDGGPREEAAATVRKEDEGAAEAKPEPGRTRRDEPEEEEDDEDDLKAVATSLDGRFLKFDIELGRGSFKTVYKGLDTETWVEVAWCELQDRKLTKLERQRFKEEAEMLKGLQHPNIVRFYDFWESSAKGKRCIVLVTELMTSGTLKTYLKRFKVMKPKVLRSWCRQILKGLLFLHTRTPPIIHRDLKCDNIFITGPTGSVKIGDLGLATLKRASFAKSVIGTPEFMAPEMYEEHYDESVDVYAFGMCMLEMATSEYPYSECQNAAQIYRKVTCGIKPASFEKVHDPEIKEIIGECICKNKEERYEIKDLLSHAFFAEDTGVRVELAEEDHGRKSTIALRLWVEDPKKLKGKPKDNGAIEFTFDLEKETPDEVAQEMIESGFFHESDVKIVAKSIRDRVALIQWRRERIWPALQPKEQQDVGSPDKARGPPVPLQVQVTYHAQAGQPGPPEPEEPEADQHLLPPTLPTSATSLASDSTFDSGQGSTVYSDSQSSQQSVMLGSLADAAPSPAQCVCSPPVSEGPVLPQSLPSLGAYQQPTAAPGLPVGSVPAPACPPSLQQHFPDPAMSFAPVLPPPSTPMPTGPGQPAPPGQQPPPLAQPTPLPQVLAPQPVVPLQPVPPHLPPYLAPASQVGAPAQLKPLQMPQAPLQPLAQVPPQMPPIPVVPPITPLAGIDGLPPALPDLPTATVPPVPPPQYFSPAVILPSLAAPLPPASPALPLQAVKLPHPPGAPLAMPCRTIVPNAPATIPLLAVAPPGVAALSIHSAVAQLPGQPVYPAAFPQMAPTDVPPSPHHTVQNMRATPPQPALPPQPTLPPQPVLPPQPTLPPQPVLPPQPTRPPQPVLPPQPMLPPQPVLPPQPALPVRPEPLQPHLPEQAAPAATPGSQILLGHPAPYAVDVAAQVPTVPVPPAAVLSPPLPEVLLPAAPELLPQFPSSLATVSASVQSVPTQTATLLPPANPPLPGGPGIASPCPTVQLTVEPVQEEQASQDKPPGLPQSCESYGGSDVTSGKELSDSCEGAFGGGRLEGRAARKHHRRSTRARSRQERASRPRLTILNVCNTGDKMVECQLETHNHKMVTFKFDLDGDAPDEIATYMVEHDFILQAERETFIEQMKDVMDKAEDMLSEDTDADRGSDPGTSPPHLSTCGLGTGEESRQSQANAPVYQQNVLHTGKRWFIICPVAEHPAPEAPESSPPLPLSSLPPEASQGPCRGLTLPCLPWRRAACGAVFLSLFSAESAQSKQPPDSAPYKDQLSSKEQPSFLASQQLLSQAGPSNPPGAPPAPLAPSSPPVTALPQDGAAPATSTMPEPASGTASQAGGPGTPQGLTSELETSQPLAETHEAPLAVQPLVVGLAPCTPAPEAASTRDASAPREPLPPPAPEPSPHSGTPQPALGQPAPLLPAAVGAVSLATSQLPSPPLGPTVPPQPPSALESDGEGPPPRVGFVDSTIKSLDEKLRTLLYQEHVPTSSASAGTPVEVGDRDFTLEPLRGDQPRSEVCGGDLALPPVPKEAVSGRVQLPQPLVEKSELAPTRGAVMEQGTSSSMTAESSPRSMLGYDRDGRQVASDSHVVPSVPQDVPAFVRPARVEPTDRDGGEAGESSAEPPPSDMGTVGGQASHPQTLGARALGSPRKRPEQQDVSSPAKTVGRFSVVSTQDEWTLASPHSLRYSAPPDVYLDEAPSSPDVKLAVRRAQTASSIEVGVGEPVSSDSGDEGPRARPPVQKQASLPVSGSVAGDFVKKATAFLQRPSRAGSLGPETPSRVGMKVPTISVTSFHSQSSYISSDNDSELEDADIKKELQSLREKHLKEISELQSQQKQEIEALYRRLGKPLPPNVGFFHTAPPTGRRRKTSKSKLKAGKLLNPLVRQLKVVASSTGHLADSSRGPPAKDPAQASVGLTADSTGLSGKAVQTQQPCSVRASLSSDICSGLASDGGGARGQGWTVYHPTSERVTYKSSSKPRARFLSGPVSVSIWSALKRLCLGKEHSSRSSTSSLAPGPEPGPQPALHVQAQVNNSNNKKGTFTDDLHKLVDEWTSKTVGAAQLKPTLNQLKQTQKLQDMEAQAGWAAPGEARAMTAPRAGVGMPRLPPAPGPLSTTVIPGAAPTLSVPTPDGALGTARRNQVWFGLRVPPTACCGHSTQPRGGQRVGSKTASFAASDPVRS

[7] = molecular target: T3, Protein kinase C epsilon type (Homo sapiens) (UniProt Q02156); experiment: Selectivity interaction (Upstate Kinase Profiler service (Millipore)) EUB0000056c PRKCE; details: at 1 µM
T3 sequence (whole entry): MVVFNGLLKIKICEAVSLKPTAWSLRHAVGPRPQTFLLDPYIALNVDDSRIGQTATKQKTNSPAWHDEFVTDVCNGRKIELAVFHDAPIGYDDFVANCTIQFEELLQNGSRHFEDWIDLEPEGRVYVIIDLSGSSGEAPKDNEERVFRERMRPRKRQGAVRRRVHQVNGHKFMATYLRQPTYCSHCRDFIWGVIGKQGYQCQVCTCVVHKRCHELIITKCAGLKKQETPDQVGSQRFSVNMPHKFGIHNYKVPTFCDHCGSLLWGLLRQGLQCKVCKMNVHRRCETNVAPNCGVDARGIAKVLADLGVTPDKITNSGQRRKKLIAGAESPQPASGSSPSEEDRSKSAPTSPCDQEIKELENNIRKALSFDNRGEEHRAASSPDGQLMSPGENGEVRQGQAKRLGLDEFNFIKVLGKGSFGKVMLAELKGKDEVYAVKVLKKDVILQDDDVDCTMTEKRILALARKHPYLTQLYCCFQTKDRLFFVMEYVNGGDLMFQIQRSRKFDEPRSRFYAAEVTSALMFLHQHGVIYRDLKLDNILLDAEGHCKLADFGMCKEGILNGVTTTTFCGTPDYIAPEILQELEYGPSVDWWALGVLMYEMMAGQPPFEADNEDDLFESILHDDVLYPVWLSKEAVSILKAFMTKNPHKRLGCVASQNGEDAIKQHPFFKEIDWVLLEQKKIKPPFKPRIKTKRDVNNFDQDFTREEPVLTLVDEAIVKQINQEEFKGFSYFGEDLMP

[8] = molecular target: Mitogen-activated protein kinase kinase kinase 20 (Homo sapiens) (UniProt Q9NYL2); experiment: Selectivity interaction (KinomeScan (DiscoverX)) EUB0000229b MAP3K20; details: at 10 µM
[9] = molecular target: T4, Homeodomain-interacting protein kinase 4 (Homo sapiens) (UniProt Q8NE63); experiment: Selectivity interaction (KinomeScan (DiscoverX)) EUB0000229b HIPK4; details: at 10 µM
T4 sequence (whole entry): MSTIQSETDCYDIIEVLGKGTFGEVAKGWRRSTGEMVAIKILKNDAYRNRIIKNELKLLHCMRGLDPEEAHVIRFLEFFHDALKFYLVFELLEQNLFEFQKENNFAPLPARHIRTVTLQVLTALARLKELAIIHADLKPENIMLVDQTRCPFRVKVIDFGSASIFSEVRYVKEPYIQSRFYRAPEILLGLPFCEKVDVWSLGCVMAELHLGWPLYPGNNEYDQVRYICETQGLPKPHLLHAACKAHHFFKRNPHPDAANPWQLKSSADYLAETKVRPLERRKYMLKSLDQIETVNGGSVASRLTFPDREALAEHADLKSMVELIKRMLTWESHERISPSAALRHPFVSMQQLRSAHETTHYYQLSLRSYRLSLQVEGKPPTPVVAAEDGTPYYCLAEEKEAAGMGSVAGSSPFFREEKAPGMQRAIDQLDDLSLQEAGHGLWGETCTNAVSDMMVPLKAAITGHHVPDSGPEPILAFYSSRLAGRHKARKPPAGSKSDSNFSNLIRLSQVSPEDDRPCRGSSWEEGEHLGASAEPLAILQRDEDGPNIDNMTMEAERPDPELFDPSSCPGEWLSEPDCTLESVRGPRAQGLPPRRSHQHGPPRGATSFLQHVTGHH

[10] = molecular target: Ribosomal protein S6 kinase alpha-3 (Homo sapiens, UniProt P51812); experiment: Selectivity interaction (KinomeScan (DiscoverX)) EUB0000695a RPS6KA3; details: at 100 nM
Sequence of Ribosomal protein S6 kinase alpha-3 (P51812 whole entry): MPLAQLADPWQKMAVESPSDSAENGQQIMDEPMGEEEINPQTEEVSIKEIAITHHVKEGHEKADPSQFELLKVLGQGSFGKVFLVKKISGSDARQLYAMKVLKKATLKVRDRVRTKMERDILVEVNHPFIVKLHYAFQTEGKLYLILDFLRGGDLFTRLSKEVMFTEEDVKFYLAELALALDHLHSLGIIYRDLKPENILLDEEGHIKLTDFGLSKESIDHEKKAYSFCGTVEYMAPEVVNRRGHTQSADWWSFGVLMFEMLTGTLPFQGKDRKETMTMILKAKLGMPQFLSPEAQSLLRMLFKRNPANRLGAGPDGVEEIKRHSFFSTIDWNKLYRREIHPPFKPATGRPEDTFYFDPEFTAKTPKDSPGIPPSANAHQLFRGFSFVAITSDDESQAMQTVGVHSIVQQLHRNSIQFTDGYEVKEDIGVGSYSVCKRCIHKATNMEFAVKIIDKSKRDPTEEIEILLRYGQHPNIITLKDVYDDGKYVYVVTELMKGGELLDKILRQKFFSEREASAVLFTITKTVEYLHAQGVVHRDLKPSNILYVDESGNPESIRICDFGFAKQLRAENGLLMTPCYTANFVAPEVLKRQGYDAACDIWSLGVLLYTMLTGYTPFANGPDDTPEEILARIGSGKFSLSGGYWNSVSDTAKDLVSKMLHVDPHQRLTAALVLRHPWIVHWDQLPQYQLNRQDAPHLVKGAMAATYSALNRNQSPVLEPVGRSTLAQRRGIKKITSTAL

Sequence of Leukocyte tyrosine kinase receptor (P29376 whole entry): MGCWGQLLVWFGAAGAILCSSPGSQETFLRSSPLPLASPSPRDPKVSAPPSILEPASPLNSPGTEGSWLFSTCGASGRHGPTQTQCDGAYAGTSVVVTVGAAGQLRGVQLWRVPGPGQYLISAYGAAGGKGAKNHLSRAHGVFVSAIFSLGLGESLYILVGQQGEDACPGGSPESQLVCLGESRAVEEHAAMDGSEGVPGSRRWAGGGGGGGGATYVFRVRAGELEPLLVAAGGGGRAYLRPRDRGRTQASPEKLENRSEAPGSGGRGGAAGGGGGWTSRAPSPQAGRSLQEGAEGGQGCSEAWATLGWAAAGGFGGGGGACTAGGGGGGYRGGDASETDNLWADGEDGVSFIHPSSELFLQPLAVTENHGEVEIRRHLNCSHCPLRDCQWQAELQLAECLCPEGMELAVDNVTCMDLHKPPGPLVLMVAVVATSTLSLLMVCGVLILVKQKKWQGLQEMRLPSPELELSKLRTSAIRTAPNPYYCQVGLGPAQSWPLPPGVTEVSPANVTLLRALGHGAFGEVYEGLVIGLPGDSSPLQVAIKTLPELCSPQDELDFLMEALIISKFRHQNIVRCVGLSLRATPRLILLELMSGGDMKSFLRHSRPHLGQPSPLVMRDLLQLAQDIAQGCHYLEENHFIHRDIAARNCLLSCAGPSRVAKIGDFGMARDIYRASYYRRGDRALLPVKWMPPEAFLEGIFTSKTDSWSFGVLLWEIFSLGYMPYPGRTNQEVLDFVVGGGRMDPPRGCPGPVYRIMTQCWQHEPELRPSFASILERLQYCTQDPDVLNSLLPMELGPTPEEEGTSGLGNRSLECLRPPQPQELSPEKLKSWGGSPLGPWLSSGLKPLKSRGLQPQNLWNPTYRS

CCN(CC)CCCCNc1ncc2cc(-c3cc(OC)cc(OC)c3)c(NC(=O)NC(C)(C)C)nc2n1
% of control [1]: 100% | % of control [2]: 100%

CN(C)CCOc1ccc(-c2nc(-c3ccncc3)c(-c3ccc4c(c3)CC/C4=N\O)[nH]2)cc1
% of control [3]: 43%

Nc1cnc(N2CCc3cc(S(=O)(=O)Nc4c(F)cc(Cl)cc4F)cc(N4CCCC4=O)c32)nc1 [TP-020n]
% of control [4]: 96%

N#Cc1cccc(-c2c[nH]c3ncnc(N4CCOCC4)c23)c1
% of control [5]: 70% | % of inhibition [6]: -6%

Cc1ccc(-c2ccc3c(ccc4sc5c(c43)NC[C@@H](C)NC5=O)n2)cn1
% of inhibition [7]: 8%

COc1cc(N(C)c2ccnc3ccc(C(F)(F)F)cc23)cc(OC)c1OC
% binding [8]: 91% | % binding [9]: 100%

Cc1cc(F)c(C(=O)Nc2cccc(-c3nncn3C(C)C)n2)cc1-n1cnc(C2CC2)c1
% of control [10]: 46%
